Measurements from patent US10343997B1, “Ursolic acid derivatives” (KING SAUD UNIVERSITY, priority 2018, dated 2019).

How the values were obtained:
[1] = system: pithed rat; assay: In vivo evaluation of calcium blockade in the pithed rat (cardio accelerator response)
Procedure: Calcium blockers in the pithed rat were calculated in vivo.
Male Sprague-Dawley rats (250-350 g) were anaesthetized with methohexitone sodium (50 mg/kg, intraperitoneal injection). Following cannulation of the trachea, the rats were pithed through one orbit with a stainless steel rod and immediately artificially respired with room air (78 strokes/min, 1 mil/100 g body weight) via a Palmer small animal respiration pump. A jugular vein was cannulated for administration of drugs. Arterial blood pressure was recorded from a carotid artery using a pressure transducer.
Heart rate was derived from the phasic arterial pressure signal with a phase lock loop ratemeter (BRL Instrument Services). […] The animals were kept warm by an incandescent lamp positioned about 25 cm above them. The pithing rod was withdrawn until the tip reached the thoracic portion of the spinal cord. All rats then received (+)tubocurarine (1.5 mg/kg, intravenously) and were bilaterally vagotomized.
The cardio accelerator response was obtained by continuous electrical stimulation of the thoracic spinal cord with square wave pulses of 0.5 ms duration, at supramaximal voltage at a frequency of 0.5 Hz using the pithing rod as a stimulating electrode. An indifferent electrode was inserted subcutaneously in the femoral region. Only rats with a resulting tachycardia of more than 100 beats/min were included in the experiments. When the cardio accelerator response was stabilized for about 3-5 min, cumulative intravenous doses of test drug or corresponding vehicle were administered. Successive doses were given when the response to the previous dose stabilized.
Doses of β-blockers or calcium-antagonists, which reduce the tachycardia to 50%, were tested again. Three minutes after administration of the drug, calcium gluconate (1 mg/min) or water (0.1 ml/min) was infused using a Harvard apparatus compact infusion pump.
The level of tachycardia immediately prior to drug administration was taken as 100% and responses to drugs were calculated as a percentage of the predose tachycardia. […] Significance of differences between the groups receiving calcium gluconate and their parallel vehicle controls were calculated by a Student's t-test.

[2] = system: rat isolated aorta; assay: Relaxation of potassium-induced contraction of rat isolated aorta; assay type: cell-based; settings: rat isolated aorta pre-contracted with 40 mM KCl; means ± s.e., n = 6; read-out: pIC50 (−log IC50) for relaxation of potassium-induced contraction (converted)
Procedure: Six white male rats were killed by a blow on the head and decapitation. The thoracic aorta of each rat was isolated, carefully dissected from the surrounding tissues, and cut into 5 segments, 3 mm in length. The segments were joined together, suspended in Krebs solution (composition in mmol: NaCl 118, KCl 4.8, CaCl2, 2.5, KH2PO4 1.2, MgSO4 1.2, NaHCO3 25 and glucose 10) at 37° C. and oxygenated with 95% O2 and 5% CO2. The fluid of the organ bath was changed every 15 min. The tissue was subject to a resting tension of 1 g and left to equilibrate for 1 h. The contractions of isolated aortic rings were recorded by means of a force transducer and Beckman physiograph. […] The pre-contracted tissue was then subject to increasing amounts of one of the calcium channel blockers added to the organ bath. The pIC50 value of each compound was calculated from concentration-response curves.

[3] = system: guinea-pig ileum; assay: Calcium-induced contraction in K+-depolarized guinea-pig ileum; assay type: cell-based; settings: 2×10^−9 M of compound; for Emax at 0.002 µM: Cavia porcellus, contraction induced by 3 mM calcium, 84.44% without antagonist, read-out: calcium-induced contractions, % of the maximum response
Procedure: (§1) Male guinea-pigs, weighing between 200-400 g, were killed by a blow on the head after previously being deprived of food for 18 h but having had free access to water. The non-terminal part of the ileum was removed and cut into 20-mm long segments, which were suspended in an organ bath and connected to an isotonic transducer. The organ bath contained 50 mL physiological solution oxygenated with 95% O2 and 5% […] at 37° C. The physiological solution was typically normal saline with 0.9% sodium chloride. The fluid of the organ bath was changed every 15 min. The ileal segments were subjected to a resting tension of 0.5-1 g and left to equilibrate for 60 min.
As a control, increasing concentrations of CaCl2 (0.1, 0.3, 1, 3, 10 mmol) were added to an organ bath and the contractile response of the ileum was recorded. Tissues were then preincubated for 15-20 min with one concentration of each calcium channel blocker and increasing concentrations of CaCl2 were again added to the bathing media.
Response percentage ratios were calculated by dividing the percent of maximum responses induced by 3 mM calcium in the presence of each calcium-channel blocker at a concentration of 2×10^−9 M by the percent of maximum response induced by 3 mM calcium in the absence of any calcium-channel blocker.

[4] = biological target: voltage-dependent calcium channel; assay: In vitro 3H-nitrendipine binding assay; settings: competition with 3H-nitrendipine, plasma membrane from bovine cerebral cortices
[5] = system: guinea-pig isolated ileum; assay: Relaxation of electrically induced contraction of guinea-pig isolated ileum; assay type: cell-based; settings: Cavia porcellus, stimulation 25V, 0.1 Hz, 5 ms, means ± s.e., n = 6, read-out: pIC50 (−log IC50) for relaxation of electrically induced contraction (converted)
Procedure: as §1
Each segment was treated with only one compound. The pIC50 (−log IC50) value of each compound was calculated from concentration-response curves.

[6] = system: cardiac function; settings: background statement; cited from earlier work

| SMILES | effect on tachycardia elicited by electrical stimulation of the spinal cord ([1]; result in words) | IC50 [2] [nM] | Emax at 0.002 µM [3] [%] | IC50 [5] [nM] | further results |
| --- | --- | --- | --- | --- | --- |
| CCN(CC)CC(=O)Nc1c(C)cccc1C [lignocaine, reference compound] | no effect | – | – | – | – |
| COC(=O)C1=C(C)NC(C)=C(OC(C)=O)C1[C@]12CC[C@@H](C)[C@H](C)[C@H]1C1=CC[C@@H]3[C@@]4(C)CC[C@H](OC)C(C)(C)C4CC[C@@]3(C)[C@]1(C)CC2 (stereo partly shown) [Compound 4, Dihydropyridine-3,5-dicarboxylate Ursolic Acid Derivative] | – | 0.0174 | 27 | 0.347 | ID50 ([1]; inhibition of electrically induced tachycardia, cumulative intravenous doses): 71620 nM; calcium channel blocker selectivity in pithed rat assay ([1]; result in words): selective calcium channel blocker; Response percentage ratio ([3]; 3 mM calcium, response with blocker divided by response without): 0.15 ± 0.009; The affinity constant Ki [4]: 3.1 × 10^−13 mol/1 |
| C[C@H]1[C@H](C)CC[C@]2(C(=O)O)CC[C@]3(C)C(=CC[C@@H]4[C@@]5(C)CC[C@H](O)C(C)(C)[C@@H]5CC[C@]43C)[C@H]12 [ursolic acid] | – | – | – | – | heart rate decrease [6]: 32% |
| COC(=O)C1=C(C)NC(C)=C(C(=O)OC)C1c1ccccc1[N+](=O)[O-] [Nifedipine, reference compound] | – | 5.13 | 74 | 35.5 | – |
| O=C(NCCO[N+](=O)[O-])c1cccnc1 [nicorandil, reference compound] | no effect | – | – | – | – |
